Data reported in patent publication US11628169B2, “Therapeutic drug for motor complications in Parkinson's disease” (Sumitomo Pharma Co., Ltd., priority 2020, dated 2023).
Entries after “also recorded” stand apart in the source; their conditions may differ.

What was measured:
PD-LID rat model [1] = assay: Dyskinesia-like symptom (AIMs) score in PD-LID rat model; format: in vivo
PD-LID rat model [2] = assay: ON score and ON time without dyskinesia in PD-LID rat model; format: in vivo; settings: for total ON score (Locomotive behavior) in 3 hours: levodopa 5 min later
Procedure: To make a PD-LID rat model, a mixture of levodopa methyl ester hydrochloride (6 mg/kg; Sigma-Aldrich) dissolved in saline and benserazide hydrochloride (15 mg/kg; Sigma-Aldrich) (hereinafter, also referred to as “levodopa containing solution”) was intraperitoneally administered once daily to 6-OHDA-lesioned rats. The levodopa containing solution was repeatedly administered for 3 weeks or longer to observe and evaluate the behavior. The behavior was observed and evaluated in a transparent acrylic cage for 1 minute every 20 minutes after 20 minutes from the intraperitoneal administration of the levodopa containing solution, up until after 3 hours from administration. […] Individuals with a total AIMs score of less than 10 were excluded from the test as not manifesting a dyskinesia-like symptom. The behavior was observed and evaluated before the drug evaluation date. […] For an indicator of dyskinesia behavior, the sum of the Limb AIMs, Axial AIMs, and Orolingual AIMs at each evaluation point was used as the AIMs score. For the rotational behavior (ON score), Locomotive behavior at each evaluation point was used as an indicator. […] For ON time without dyskinesia, the period during which the AIMs score is 0 and Locomotive behavior is 1 or greater at each evaluation point was added. Duration of action of levodopa without a dyskinesia symptom (ON time without dyskinesia) refers to the aggregate time with no dyskinesia during the antiparkinsonian action effective time, i.e., “ON-time”, and defined as the time during which the dyskinesia symptom (AIMs) score is 0 and the rotational behavior (Locomotive behavior) score is 1 or greater at each evaluation point after levodopa administration. […] After 5 minutes, a levodopa containing solution was intraperitoneally administered, and the behavior was observed and evaluated. The results in the drawings are indicated in terms of mean value±standard error. […] For evaluation of a tape agent, the abdominal regions of the rats were shaved prior to the evaluation date. […] After 4 hours from application, a levodopa containing solution was intraperitoneally administered to observe and evaluation the behavior. The results in the drawings are indicated in terms of mean value±standard error. Individuals with 50% or more of the tape agent coming off during the test were excluded from analysis.

[3] = Plasma tandospirone concentration after observation of behavior in PD-LID rats; format: in vivo, rat; settings: continuous subcutaneous infusion 60 mg/mL (mean 0.78 mg/kg/hour as citrate)
Procedure: 50 μL of rat plasma sample was fractionated into a polypropylene microtube. 50 μL of methanol (50 μL of standard solution for calibration curve sample) and 200 μL of internal standard solution (Bezafibrate methanol solution: 200 nmol/L, 200 μL of methanol for blank sample) are added and stirred for about 10 seconds with a mixer. This is centrifuged (4° C., 4500 rpm, 10 min), and then the supernatant is subjected to vacuum filtration using a filter (FastRemover MF 0.2 μm). 70 μL of aqueous 10 mmol/L ammonium acetate solution is added to 70 μL of the resulting filtrate and stirred for about 10 seconds with a mixer to prepare a measurement sample.
When evaluating a tape agent, the hair on the abdominal region of rats was shaved before the evaluation date. The tape agent of formulation 2 was applied to the abdominal regions of rats on the evaluation date at 60 cm^2/kg (37 mg/kg). After 4 hours from application, a levodopa containing solution was intraperitoneally administered to observe and evaluate the behavior. Individuals with 50% or more of the tape agent coming off during the test were excluded from analysis. […]
After 4 hours, a levodopa containing solution was administered to observe and evaluate the behavior (day 0 of implanting the pump). […] The behavior was also observed and evaluated on day 13 of implanting the pump.

6-OHDA-lesioned rats = assay: Prevention/suppression of dyskinesia-like symptoms during repeated levodopa administration; format: in vivo, rat; settings: vs solvent group; for increase in total AIMs score associated with repeated administration of levodopa: days 3, 5, 9, 15
Procedure: The prepared solution was used after injection into an ALZET® Osmotic Pump MODEL 2ML2 (4.53 μL/hour; DURECT).
6-OHDA-lesioned rats were assigned to each administration group using the number of apomorphine hydrochloride hemihydrate induced rotations and body weight as indicators. […] The osmotic pump implanted subcutaneously was retrieved after the observation and evaluation of behavior on day 15. The behavior was also observed and evaluated on the following day (day 16 of repeated administration of levodopa).
The test results were statistically analyzed by comparison with the solvent administration group using Steel test with the total AIMs score on day 16 of repeated levodopa administration as the parameter. * indicates p<0.05 and ** indicates p<0.01, meaning that there is a significant difference compared to the solvent administration group.

[4] = oral 67 mg/kg as free form (100 mg/kg as citrate)

With tandospirone citrate the “dyskinesia-like symptoms (total AIMs score in 3 hours)” value (PD-LID rat model [1]; continuous subcutaneous infusion 60 mg/mL (mean 0.78 mg/kg/hour), day 13 of implanting the pump, vs solvent group) was “significant improvement in dyskinesia-like symptoms”, the “(i) Degree of improvement in indicator of dyskinesia symptom (total AIMs score in 3 hours, solvent minus tandospirone group)” value (PD-LID rat model [1]; oral 6.7 mg/kg as free form (10 mg/kg as citrate)) was “significant change in the total AIMs score was not observed” and the “(i) Degree of improvement in indicator of dyskinesia symptom (total AIMs score in 3 hours, solvent minus tandospirone group)” value (PD-LID rat model [1]; oral 20 mg/kg as free form (30 mg/kg as citrate)) was “significant change in the total AIMs score was not observed”. The “(ii) Indicator of rebound symptom of dyskinesia (total dyskinesia-like symptom score in 100 to 180 minutes, solvent minus tandospirone group)” value (PD-LID rat model [1]; oral 20 mg/kg as free form (30 mg/kg as citrate), experiment printed as (FIG. 7)) was “significant increase in the total AIMs score”, the “(ii) Indicator of rebound symptom of dyskinesia (total dyskinesia-like symptom score in 100 to 180 minutes, solvent minus tandospirone group)” value (PD-LID rat model [1]; oral 20 mg/kg as free form (30 mg/kg as citrate), experiment printed as (FIGS. 8A-8B)) was “significant increase in the total AIMs score” and the “(i) Degree of improvement in indicator of dyskinesia symptom (total AIMs score in 3 hours, solvent minus tandospirone group)” value (PD-LID rat model [1]; [4]) was “significant change in the total AIMs score was not observed”. The “(ii) Indicator of rebound symptom of dyskinesia (total dyskinesia-like symptom score in 100 to 180 minutes, solvent minus tandospirone group)” value (PD-LID rat model [1]; [4]) was “significant increase in the total AIMs score”, the “(iii) Duration of action of levodopa without dyskinesia symptom (ON time without dyskinesia)” value (PD-LID rat model [2]; oral 20 mg/kg as free form (30 mg/kg as citrate), vs solvent group) was “increase in ON time without dyskinesia” and the “total ON score (Locomotive behavior) in 3 hours” value (PD-LID rat model [2]; oral 30 mg/kg as citrate, vs solvent group) was “increase in the total ON score”. The “(iii) Duration of action of levodopa without dyskinesia symptom (ON time without dyskinesia)” value (PD-LID rat model [2]; oral 67 mg/kg as free form (100 mg/kg as citrate), prolongation vs solvent group) was “significant prolongation in the ON-time without dyskinesia; also recorded: increase in ON time without dyskinesia”, the “total ON score (Locomotive behavior) in 3 hours” value (PD-LID rat model [2]; oral 100 mg/kg as citrate, vs solvent group) was “increase in the total ON score” and the “mean value of the plasma tandospirone concentrations (value converted in terms of free form)” value ([3]; day 0 of implanting the pump) was 281 ng/mL. The “mean value of the plasma tandospirone concentrations (value converted in terms of free form)” value ([3]; day 13 of implanting the pump) was 143 ng/mL, the “increase in total AIMs score associated with repeated administration of levodopa” value (6-OHDA-lesioned rats; continuous subcutaneous infusion 30 mg/mL (mean of 0.41 mg/kg/hour)) was “suppressed the increase in total AIMs score” and the “total AIMs score on the day after completion of administration (day 16)” value (6-OHDA-lesioned rats; continuous subcutaneous infusion 30 mg/mL or 60 mg/mL, pump retrieved day 15) was “significantly lower”. The “increase in total AIMs score associated with repeated administration of levodopa” value (6-OHDA-lesioned rats; continuous subcutaneous infusion 60 mg/mL (mean of 0.83 mg/kg/hour)) was “suppressed the increase in total AIMs score”.
